Measured values as given in patent EP4467141A1, “PYRAZOLO-QUINOLINES AS SELECTIVE INHIBITORS OF GENOTOXIC STRESS-INDUCED IKK/NF- KB PATHWAYS FOR CANCER THERAPY” (Max-Delbrück-Centrum für Molekulare Medizin in der …, priority 2023, dated 2024).

Columns and labels:
Assay in all cases: Kinase panel study
Format in all cases: biochemical
Conditions in all cases: read-out: Percentage of inhibition; for inhibition at 1 µM: 1000nM; for inhibition at 10 µM: 10000nM
[1] = molecular target: T1, ABL1 Y253F (Homo sapiens, UniProt P00519, Y253F)
T1 construct: purchased Thermo Fisher Scientific
How it was run: (§1)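 Lead compounds and derivatives were profiled by ZLyte or Adapta in vitro kinase assays. Each value reports inhibition percentage at one of two concentrations, 1 µM or 10 µM.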

[2] = molecular target: T2, TXK (Homo sapiens, UniProt P42681)
T2 construct: purchased Thermo Fisher Scientific
T2 sequence (P42681 1-527): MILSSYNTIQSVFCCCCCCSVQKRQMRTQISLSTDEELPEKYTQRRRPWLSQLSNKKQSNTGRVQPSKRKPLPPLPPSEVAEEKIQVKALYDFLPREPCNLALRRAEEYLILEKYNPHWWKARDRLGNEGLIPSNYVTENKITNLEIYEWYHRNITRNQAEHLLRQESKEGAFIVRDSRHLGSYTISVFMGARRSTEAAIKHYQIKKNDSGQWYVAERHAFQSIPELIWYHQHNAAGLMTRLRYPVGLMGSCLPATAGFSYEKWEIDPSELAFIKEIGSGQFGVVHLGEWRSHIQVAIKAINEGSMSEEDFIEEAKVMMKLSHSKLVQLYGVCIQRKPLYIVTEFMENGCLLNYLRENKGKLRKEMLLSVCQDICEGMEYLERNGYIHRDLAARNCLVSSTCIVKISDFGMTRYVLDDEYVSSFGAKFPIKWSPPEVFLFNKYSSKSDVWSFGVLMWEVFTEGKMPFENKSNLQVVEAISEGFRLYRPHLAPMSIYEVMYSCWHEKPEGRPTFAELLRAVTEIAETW
How it was run: as §1

[3] = molecular target: T3, GRK6 (Homo sapiens, UniProt P43250)
T3 construct: purchased Thermo Fisher Scientific
T3 sequence (P43250 whole entry): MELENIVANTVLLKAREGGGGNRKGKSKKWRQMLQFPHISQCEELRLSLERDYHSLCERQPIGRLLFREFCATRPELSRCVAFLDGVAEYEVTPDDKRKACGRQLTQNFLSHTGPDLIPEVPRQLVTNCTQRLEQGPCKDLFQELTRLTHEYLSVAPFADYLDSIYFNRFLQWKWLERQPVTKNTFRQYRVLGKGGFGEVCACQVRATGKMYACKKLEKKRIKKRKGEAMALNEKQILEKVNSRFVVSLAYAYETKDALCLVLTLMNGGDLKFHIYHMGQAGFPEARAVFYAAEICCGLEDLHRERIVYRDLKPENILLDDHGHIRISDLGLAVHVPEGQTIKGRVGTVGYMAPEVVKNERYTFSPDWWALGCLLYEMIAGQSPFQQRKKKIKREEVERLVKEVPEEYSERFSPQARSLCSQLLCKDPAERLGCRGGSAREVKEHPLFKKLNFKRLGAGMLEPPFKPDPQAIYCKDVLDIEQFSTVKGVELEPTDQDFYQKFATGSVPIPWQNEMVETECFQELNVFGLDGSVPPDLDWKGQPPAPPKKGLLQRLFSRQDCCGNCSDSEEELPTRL
How it was run: as §1

[4] = molecular target: T4, AXL (Homo sapiens, UniProt P30530)
T4 construct: purchased Thermo Fisher Scientific
T4 sequence (P30530 26-894): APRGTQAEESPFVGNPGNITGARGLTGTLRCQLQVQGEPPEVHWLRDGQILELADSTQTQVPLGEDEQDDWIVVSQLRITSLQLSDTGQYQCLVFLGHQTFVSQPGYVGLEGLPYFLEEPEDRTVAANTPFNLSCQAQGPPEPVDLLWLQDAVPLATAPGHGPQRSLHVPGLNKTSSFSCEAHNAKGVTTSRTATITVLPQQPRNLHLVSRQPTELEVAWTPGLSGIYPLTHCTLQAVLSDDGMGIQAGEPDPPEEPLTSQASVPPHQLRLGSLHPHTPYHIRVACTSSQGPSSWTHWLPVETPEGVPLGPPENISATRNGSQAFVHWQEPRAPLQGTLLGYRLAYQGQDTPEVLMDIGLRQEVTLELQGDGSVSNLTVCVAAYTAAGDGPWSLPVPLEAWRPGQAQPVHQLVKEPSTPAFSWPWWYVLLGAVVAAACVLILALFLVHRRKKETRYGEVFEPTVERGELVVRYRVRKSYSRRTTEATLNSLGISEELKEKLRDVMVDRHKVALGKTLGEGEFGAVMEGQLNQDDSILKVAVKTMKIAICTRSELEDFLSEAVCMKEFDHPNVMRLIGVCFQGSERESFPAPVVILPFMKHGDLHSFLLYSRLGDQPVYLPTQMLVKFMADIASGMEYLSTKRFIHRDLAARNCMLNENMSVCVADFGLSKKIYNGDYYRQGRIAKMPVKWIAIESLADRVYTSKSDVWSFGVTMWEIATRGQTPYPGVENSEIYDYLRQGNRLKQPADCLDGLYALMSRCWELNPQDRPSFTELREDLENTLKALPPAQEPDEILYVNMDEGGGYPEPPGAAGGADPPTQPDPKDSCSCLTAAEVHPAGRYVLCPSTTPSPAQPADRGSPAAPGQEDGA
How it was run: as §1

[5] = molecular target: T5, FGFR3 (Homo sapiens, UniProt P22607)
T5 construct: purchased Thermo Fisher Scientific
T5 sequence (P22607 23-806): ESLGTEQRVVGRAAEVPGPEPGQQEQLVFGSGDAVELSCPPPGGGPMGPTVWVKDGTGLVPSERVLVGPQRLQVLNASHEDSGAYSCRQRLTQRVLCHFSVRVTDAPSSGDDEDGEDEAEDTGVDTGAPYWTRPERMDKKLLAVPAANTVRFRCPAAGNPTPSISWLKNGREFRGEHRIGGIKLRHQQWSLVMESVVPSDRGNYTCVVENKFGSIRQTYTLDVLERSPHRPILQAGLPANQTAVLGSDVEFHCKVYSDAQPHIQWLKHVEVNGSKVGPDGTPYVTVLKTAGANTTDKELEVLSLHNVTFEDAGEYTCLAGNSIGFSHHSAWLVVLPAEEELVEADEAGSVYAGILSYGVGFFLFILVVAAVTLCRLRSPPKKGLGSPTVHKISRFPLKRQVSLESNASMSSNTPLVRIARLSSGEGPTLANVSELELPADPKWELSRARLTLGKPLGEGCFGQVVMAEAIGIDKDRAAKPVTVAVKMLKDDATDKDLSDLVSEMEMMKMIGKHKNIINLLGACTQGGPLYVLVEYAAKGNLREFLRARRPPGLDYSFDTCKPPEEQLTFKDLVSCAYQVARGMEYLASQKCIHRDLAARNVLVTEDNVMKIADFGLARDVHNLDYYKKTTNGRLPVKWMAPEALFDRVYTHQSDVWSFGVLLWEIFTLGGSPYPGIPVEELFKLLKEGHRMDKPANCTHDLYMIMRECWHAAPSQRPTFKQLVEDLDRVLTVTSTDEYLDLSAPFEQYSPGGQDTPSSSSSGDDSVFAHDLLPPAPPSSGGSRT
How it was run: as §1

Compound	inhibition at 1 µM [1]	inhibition at 10 µM [1]	inhibition at 1 µM [2]	inhibition at 10 µM [2]	inhibition at 1 µM [3]	inhibition at 10 µM [3]	inhibition at 1 µM [4]	inhibition at 10 µM [4]	inhibition at 1 µM [5]	inhibition at 10 µM [5]
COc1ccc2c(c1OC)c(=O)n1c3ccc(O)cc3c3ccnc2c31 [MW01, 5-Hydroxy-10,11-dimethoxy-9H-benzo[c]indolo[3,2,1-ij][1,5]naphthyridin-9-one]	9%	30%	12%	29%	0%	5%	51%	80%	4%	8%
COc1ccc2cc3c(N)nn(C(=O)c4cccc(N(C)C)c4)c3nc2c1 [MW05, (3-Amino-7-methoxypyrazolo[3,4-b]quinolin-1-yl)-[3-(dimethylamino)phenyl]methanone]	-2%	7%	4%	-13%	6%	3%	4%	-8%	1%	-8%
